Measured values taken from patent US11541101B1, “LEMD3 antagonizes TGF-beta-driven Smad2/3 transcription in a stiffness-dependent fashion in both the nucleus and cytosol” (University of Virginia Patent Foundation, priority 2018, dated 2023).
Peptide text beside a SMILES is read from it. * marks the point of attachment. Cbz = O=C(OCc1ccccc1)*

Tests used:
LEMD3 = assay: Recombinant LEMD3 fragment western blots (FLAG and V5 tags); assay type: cell-based, human; settings: pFLAG-LEMD3-V5 transfected cells, inhibitor treatment, FIG. 4E
From the text: Western Blotting—For non-phosphoprotein western blots: cell lysates from tissue culture plastic or from 2 or 25 kPa, […] Petrisoft dishes (Matrigen, Brea, Calif.) were either: harvested directly in 4× protein loading buffer (Licor, Lincoln, Nebr.) supplemented with protease and phosphatase in-hibitors (#A32959, ThermoFisher, Waltham, Mass.) according to the manufacturer's instructions; or, processed with the NE-PER compartment isolation kit (ThermoFisher, Waltham, Mass.) according to the manufacturer's instructions. Lysates were treated with 0.3 μL of benzonuclease (ThermoFisher, Waltham, Mass.) for 15 minutes at room temperature with vigorous shaking. Samples were heated to 95 C for 5 minutes and run on a 4-12% Bis-Tris gel in 1×MES buffer and run for 70 minutes at 150V. The gel was then transferred to a nitro-cellulose membrane using the XCell Blot Module (ThermoFisher, Waltham, Mass.) at 25V for 65 min-utes. Membranes were air-dried for an hour, blocked with 5% non-fat milk in 1×PBS for an hour at room temperature, and then incubated with primary antibodies as described in Table 3 in 1×PBS-T with 1% milk for 16-24 hours at 4 C. Near-IR or HRP conjugated secondaries as described in Table 4 were then incubated with the blot and imaged subsequently on either an Odyssey CLx system for near-IR dyes (Licor, Lincoln, Nebr.) or a ChemiDoc MP system (Bio-Rad, Hercules, Calif.) with SuperSignal West Femto reagents (ThermoFisher, Waltham, Mass.) for HRP secondaries according to the manufacturer's instructions. Band analysis was performed using the associated Licor or Biorad software.
For recombinant LEMD3 western blots: Two samples of HFFs were prepared and electro-porated as above and plated onto each plastic or hydrogel surface for 12 hours (protease inhibitor experiments) or 24 hours (LEMD3 fragment abundance and deletion mutant experiments) before harvesting. qPCR—RNA was isolated from cultured cells using RNEasy Plus Mini kits (Qiagen, Hilden, Germany) according to the manufacturer's instructions. cDNA libraries were constructed using RT2 First Strand kit (Qiagen, Hilden, Germany) according to the manufacturer's instruction. 25 μL qPCR reactions were prepared using SYBR Green Master Mix (ThermoFisher, Waltham, Mass.) with 250 nM primers, listed in Table 3 and 10 ng input cDNA. Reactions were carried out on a StepOnePlus (ThermoFisher, Waltham, Mass.) for 40 cycles. Melt curves were visually inspected after each run to confirm a single, defined peak in the derivated intensity plot. Data from each run was imported into LinRegPCR, which performed baseline correction and measured PCR efficiency by amplicon group as described in (81). The relative number of transcripts was calculated by dividing the Cq threshold by the PCR efficiency for the reaction raised to the power of Cq, the cycle number at which the threshold is reached for a given target. For relative quantification be-tween conditions, LEMD3 transcripts were either: normalized for each condition to the mean of two reference genes, 18S and ACTB, if the samples were all from a single stiffness condition; or, normalized to 18S alone if substrate stiffness was an experimental condition.

[1] = pulmonary fibrosis; cited from earlier work
Smad-driven luciferase = Smad-driven luciferase assay on substrates of varying stiffness; assay type: cell-based, human
Description: Smad-Driven Luciferase Assays—HFFs were transfected with Cignal Lenti Reporter virus (Qiagen, Hilden, Germany) with a MOI of 40 and subsequently selected using 400 ng/mL puromycin until untransduced HFFs died. Stably transfected HFFs, with or without additional LEMD3-focused genetic treatments as described above, were plated at 10,000 cells/well on a HTS plate (Matrigen, Brea, Calif.) containing glass surfaces and polyacrylamide gels, which ranged in stiffness from 0.2 kPa to 50 kPa, all functionalized with 10 μg/mL plasma-purified human fibronectin according to the manufacturer's instruction. Cells adhered to the surfaces for 4 hours in serum-free DMEM supplemented with 1% BSA and 1% penicillin/streptomycin. Media was then supplemented with the desired amounts of TGFβ and, when applicable, with cytoskeletal agents as described in the results. HFFs were then incubated for 16 hours at 37 C before the luciferase re-action. Wells were supplemented to 2 mM VivoGlo d-luciferin (Promega, Madison, Wis.) using a plate reader controlled auto-injector system and light production was subsequently quantified every 5 minutes for 30 minutes on a Synergy H4 plate reader (BioTek, Winooski, Vt.). The raw luciferase signal was the median intensity measured over this timecourse minus the intensity from luciferase-transfected cells not treated with TGFβ to account for any TGFβ elaborated and activated by the cells in situ. Cells were then fixed with 4% paraformaldehyde, permeabilized with 0.1% Triton X-100, and then stained with 1:10,000 Hoechst 33342 in 1×PBS for 30 minutes at room temperature (ThermoFisher, Waltham, Mass.). The raw luciferase signal was then normalized to the nuclear signal, which was inside a linear standard curve form cells plated on glass and on polyacrylamide within each plate. Data for each condition was then fit to a three-parameter logistic equation using a least-squares minimization fit in Prism (Graph-Pad, La Jolla, Calif.). […] Otherwise, the trends across the maximal luciferase signal (“Top” variable from the model) or the mid-transition point observed between “Bottom” and “Top” signals (“EC50” variable from the model, called “transition point” in text), were statistically compared using an ANOVA with “Test for Trends,” which restricts the hypothesis testing to a particular order of the data-sets (e.g. max luciferase signal as a function of increasing TGFβ dose or transition point as a function of increased LEMD3 expression). Each data point represents at least three biological replicates.

LEMD3-Smad2/3 complexes = assay: LEMD3-Smad2/3 proximity ligation assay (PLA); assay type: cell-based, human
Description: In vitro PLA: Protein-protein PLA was per-formed with antibody pairs listed in Table 4 as described in (42) with the following modifications: cells were plated on FN-coated glass or hydrogels (Matrigen, Brea, Calif.). All primary antibody in-cubations were performed for 16-24 hours at 4 C and cells were counter-stained with 1:40 phalloidin-488 or phalloidin-546 in 1×PBS for 30 minutes at room temperature and/or further processed for IF imaging using the procedure recommended in Sigma's PLA Resource Center. For all recombinant LEMD3 and C-terminal fragment experiments, HFFs were electroporated as above and allowed to culture for 24 hours on 10 μg/mL fibronectin coated glass or hydrogels before fixation. For LEMD3-phospho-Smad2/3, LEMD3-Smad2/3+TGFβ and for Smad2/3-Smad4 PLA assays: cells were treated 90 minutes before fixation with 50 μg/mL for LEMD3- and CTF-Smad2/3 assays, 100 μg/mL TGFβ for LEMD3-phospho-Smad2/3 experiments and 500 μg/mL TGFβ for Smad2/3-Smad4 experiments. For FLAG post-staining of PLA processed tissues, cells were blocked with unlabelled AffiniPure donkey anti-rabbit antibodies (Jackson ImmunoResearch, West Grove, Pa.) at a 1:10 dilution in 1×PBS-T at room temperature for 1 hour before further IF processing with 1:1000 rabbit anti-FLAG (#F7425, Sigma-Aldrich, Darmstadt, Germany) for 1 hour in PBS-T at room temperature. Following three washes with PBS-T for 5 minutes, each sample was stained with 1:500 goat anti-rabbit 546 in PBS-T for 1 hour at room temperature, washed again and then counter-stained as above. For V5 post-staining of PLA processed samples, cells were incubated with 1:200 647 labelled anti-V5 antibody (R&D Systems, Minneapolis, Minn.) diluted in PBS-T at room tem-perature for 1 hour before washing three times in PBS-T for 5 minutes each and then counter-stained as above. Imaging and analysis were performed as described for high-resolution ex vivo PLA signals except that no tissue autofluorescence signal was measured or needed to be subtracted and, when appro-priate, other IF signal (e.g. FLAG) were measured in parallel. For cells on Matrigen HTS plates (FIGS. 2c & 2d), the confluence of cells prevented identifying individual cell boundaries. Instead the PLA signal was quantified as the PLA volume divided by the nuclear intensity for each image. Each data point represents at least 3 unique surfaces with at least 12 cells measured per surface. For Smad2/3-Smad4 experiments, only two independent hydrogels were analyzed for the “CTF 500 μg/mL” and “Neon 500 μg/mL” groups due to loss of hydrogels during processing. Each bar in FIG. 5D represents the mean with standard error of the mean for all the cells analyzed from that condition.

Smad3 phosphorylation = assay: phospho-Smad3 to total Smad3 ratio by western blot; assay type: cell-based, human; settings: 100 μg/mL for 90 minutes, relative to untreated HFFs, p=0.0506
[2] = tested on: LEMD3-phospho-Smad2/3 interactions; assay: LEMD3-phospho-Smad2/3 PLA; assay type: cell-based, human; settings: 100 μg/mL, HFFs on glass, vs untreated fibroblasts, p=0.0333
Description: (§1) In vitro PLA: Protein-protein PLA was per-formed with antibody pairs listed in Table 4 as described in (42) with the following modifications: cells were plated on FN-coated glass or hydrogels (Matrigen, Brea, Calif.). All primary antibody in-cubations were performed for 16-24 hours at 4 C and cells were counter-stained with 1:40 phalloidin-488 or phalloidin-546 in 1×PBS for 30 minutes at room temperature and/or further processed for IF imaging using the procedure recommended in Sigma's PLA Resource Center. […] Imaging and analysis were performed as described for high-resolution ex vivo PLA signals except that no tissue autofluorescence signal was measured or needed to be subtracted and, when appro-priate, other IF signal (e.g. FLAG) were measured in parallel. […] Instead the PLA signal was quantified as the PLA volume divided by the nuclear intensity for each image. Each data point represents at least 3 unique surfaces with at least 12 cells measured per surface. For Smad2/3-Smad4 experiments, only two independent hydrogels were analyzed for the “CTF 500 μg/mL” and “Neon 500 μg/mL” groups due to loss of hydrogels during processing. Each bar in FIG. 5D represents the mean with standard error of the mean for all the cells analyzed from that condition.

Smad2/3 = assay: V5-Smad2/3 PLA with recombinant LEMD3 / CTF; assay type: cell-based, human; settings: 50 μg/mL, 1 kPa or 25 kPa substrates, p=0.98 and p=0.99
Description: as §1

Smad2/3-Smad4 complexes = assay: Smad2/3-Smad4 PLA; assay type: cell-based, human; settings: 500 μg/mL, HFFs on 1 kPa hydrogels, relative to untreated HFFs, p=0.001
Description: as §1

[3] = 10 μM, relative to HFFs treated with TGFβ alone, FIG. 1D

O=c1oc(Cl)c(Cl)c2ccccc12 [DCI, 3,4 dichloroisocoumarin]
60 kDa FLAG fragment relative to full length (LEMD3): reduced

CCOC(=O)[C@H]1O[C@@H]1C(=O)N[C@@H](CC(C)C)C(=O)NCCC(C)C [E64d, E-64D]
85 kDa V5 fragment abundance (LEMD3): potentiated

CC(C)C[C@@H](C=O)NC(=O)[C@H](CC(C)C)NC(=O)[C@H](CC(C)C)NC(=O)OCc1ccccc1 [MG-132] (Cbz-Leu-Leu-Leu-aldehyde)
60 kDa FLAG fragment relative to full length (LEMD3): also reduced

CNC(=O)C(CCc1ccccc1)NC(=O)C(CC(=O)NO)CC(C)C (stereo not drawn) [MMPi]
85 kDa V5 fragment abundance (LEMD3): potentiated

Cc1ccc(=O)n(-c2ccccc2)c1 [Pirfenidone]
disease progression [1]: slowing of disease progression

Cc1ccc2c(c1)C(=O)C1(O)CCN(c3ccccc3)C1=N2 (stereo not drawn) [blebbistatin, Blebbistatin]
maximal luminescence (Smad-driven luciferase; [3]): nor increase the maximal luminescence
transition point (Smad-driven luciferase; [3]): did not significantly shift

C=C1[C@@H](C)[C@H]2[C@H](Cc3ccccc3)NC(=O)[C@]23[C@H](OC(C)=O)/C=C/[C@@](C)(O)C(=O)[C@@H](C)C/C=C/[C@H]3[C@@H]1O [cytochalasin D, Cytochalasin D]
luminescent profile over increasing ECM stiffness (Smad-driven luciferase; 2 μM, FIG. 1D, data did not converge to a sigmoidal model): low, flat luminescent profile
total frequency of LEMD3-Smad2/3 complexes (LEMD3-Smad2/3 complexes; 2 μM for 90 minutes, fibroblasts on glass, p=0.0089): increase
frequency of LEMD3-Smad2/3 complexes, cytosolic compartment (LEMD3-Smad2/3 complexes; 2 μM for 90 minutes, glass, p=0.0871): also increased
frequency of LEMD3-Smad2/3 complexes, nuclear compartment (LEMD3-Smad2/3 complexes; 2 μM for 90 minutes, glass, p=0.5657): also increased

C/C1=C\[C@H](C)C[C@H](C)OC(=O)C[C@H](c2ccc(O)cc2)NC(=O)[C@@H](Cc2c(Br)[nH]c3ccccc23)N(C)C(=O)[C@H](C)NC(=O)[C@@H](C)C1 [jasplakinolide, Jasplakinolide]
LEMD3-Smad2/3 interactions, total (LEMD3-Smad2/3 complexes; 100 nM and 200 nM for 2 hours, 1 kPa hydrogels, vs DMSO p<0.0001): dose-dependent decrease
LEMD3-Smad2/3 complex formation, cytoplasm (LEMD3-Smad2/3 complexes; 100 nM and 200 nM, 1 kPa hydrogels, vs DMSO p<0.0001): Significant reductions
LEMD3-Smad2/3 complex formation, nucleus (LEMD3-Smad2/3 complexes; 100 nM p=0.0466, 200 nM p=0.002 vs DMSO, 1 kPa hydrogels): Significant reductions

CC[C@H](CO)Nc1nc(NCc2ccccc2)c2ncn(C(C)C)c2n1 [roscovitine]
46 kDa V5 fragment abundance (LEMD3): significantly increasing
60 kDa FLAG fragment relative to full length (LEMD3): significantly reducing

TGFβ: Recombinant human TGF-β, R&D Systems 240-B
TGFβ dose-response of luminescence (Smad-driven luciferase; HFFs on stiff substrates, p<0.0001, FIG. 1B): increasing luminescence with increasing TGFβ dose
shift of the sigmoid transition point with increasing pg/mL doses (Smad-driven luciferase; HFFs, p=0.07, FIG. 1B): shift the transition point of the sigmoid towards softer substrates
stiffness at which transition points occurred (Smad-driven luciferase; pg/mL dose-range of TGFβ): 1-4 kPa
ratio of phospho-Smad3 to total Smad3 (Smad3 phosphorylation): increased the ratio of phospho-Smad3 to total Smad3
LEMD3-Smad2/3 interactions with TGFβ dosing (LEMD3-Smad2/3 complexes; 50 μg/mL, 1 kPa and 25 kPa hydrogels): unperturbed by TGFβ dosing
LEMD3-phospho-Smad2/3 interactions [2]: significantly higher
CTF-Smad2/3 interaction frequency with TGFβ dosing (Smad2/3): did not significantly vary
Smad2/3-Smad4 complexes (Smad2/3-Smad4 complexes): increase
